Data as given in ChEMBL document CHEMBL5724558, “Image-based profiling of drug vulnerabilities in CRC organoids” (2024).
Values joined by “and” are separate entries in the source; they are usually repeats but may differ in a detail not shown here. Equal entries are not always repeated. Square brackets hold non-standard residues; d marks the D form. Peptide text beside a SMILES is read from it. Arg(Me) = CNC(=N)NCCC[C@H](N)C(=O)O; d3Pal = N[C@H](Cc1cccnc1)C(=O)O; azaGly = NNC(=O)O

Legend:
Assay type in all cases: functional, Homo sapiens
Set-up in all cases: dose or concentration left out as unconfirmed
[1] = system: Colon cancer organoid; test: Image-based profiling of donated chemical probes and chemogenomic kinase set in O06 CRC organoid. Image analysis is performed on the sum area metric, and the data were normalized to the DMSO control. After imaging the organoid viability is measured using the OneGloEX Luciferase Assay System. The normalized viability data and sum area are reported.
[2] = system: Colon cancer organoid; test: Image-based profiling of donated chemical probes and chemogenomic kinase set in O21 CRC organoid. Image analysis is performed on the sum area metric, and the data were normalized to the DMSO control. After imaging the organoid viability is measured using the OneGloEX Luciferase Assay System. The normalized viability data and sum area are reported.
[3] = system: Colon cancer organoid; test: Image-based profiling of donated chemical probes and chemogenomic kinase set in O09 CRC organoid. Image analysis is performed on the sum area metric, and the data were normalized to the DMSO control. After imaging the organoid viability is measured using the OneGloEX Luciferase Assay System. The normalized viability data and sum area are reported.

| Compound | Cell Viability ([1]; Replication number 1) | Cell Viability ([1]; Replication number 2) | Cell Viability ([2]; Replication number 1) | Cell Viability ([2]; Replication number 2) | Cell Viability ([3]; Replication number 1) | Cell Viability ([3]; Replication number 2) |
| --- | --- | --- | --- | --- | --- | --- |
| C=CC(=O)Nc1ccc2[nH]c(=O)n(C3CCN(C(=O)c4ccc(-c5nc6cc[nH]c(=O)c6cc5-c5ccccc5)cc4)CC3)c2c1 | 120.248% and 109.056% | 107.251% and 98.7147% | 115.206% and 106.481% | 111.195% and 142.785% | 86.8441% and 100.234% | 90.0124% and 91.2435% |
| CC(=O)N1CCC(c2ccc(C(=O)NC3=NCCN3)cc2C(F)(F)F)CC1 [BI 0054] | 118.453% and 112.646% | 54.9204% and 58.7504% | 108.593% and 93.1436% | 106.585% and 84.6939% | 145.728% and 140.005% | 185.058% and 111.866% |
| Cc1c(NC(=O)COc2ccc(Cl)cc2C(=O)c2cc(F)cc(C(F)(F)F)c2)ccc(C(=O)O)c1F [BI 2540] | 58.8741% and 96.3504% | 87.0416% and 104.656% | 96.7046% and 115.044% | 105.62% and 95.2087% | 121.956% and 104.432% | 133.179% and 113.341% |
| CC(=O)Nc1nc(CN2CCC[C@H](Cc3cc(C)nc(C)c3)C2)cs1 [JNJ-73924149] | 110.009% and 115.731% | 115.696% and 107.702% | 83.219% and 91.2416% | 110.349% and 95.2087% | 161.492% and 89.8313% | 217.991% and 98.2452% |
| O=C(NCC(=O)N1CCCC1)Nc1ccc2cnccc2c1 | 118.335% and 117.664% | 145.589% and 95.8311% | 118.981% and 107.577% | 82.9956% and 91.8258% | 77.5338% and 89.49% | 125.69% and 99.4932% |
| Cn1nc(C(F)(F)F)cc1-c1cnc(N2CCc3cc(S(=O)(=O)Nc4c(F)cc(Cl)cc4F)cc(N4CCCC4=O)c32)nc1 [TP-020] | 97.5497% and 105.152% | 112.528% and 137.4% | 100.4% and 89.0686% | 74.5209% and 80.6122% | 176.236% and 116.591% | 145.95% and 107.484% |
| Cc1ccc2nc(NCCN)c3ncc(C)n3c2c1.O=C(O)C(F)(F)F.O=C(O)C(F)(F)F | 119.625% and 106.83% | 110.324% and 90.8997% | 135.691% and 125.993% | 139.56% and 141.634% | 111% and 93.003% | 101.477% and 77.7459% |
| CCOCCn1cc(C(=O)Nc2ccc(-n3nc(-c4cccnc4)cc3C(F)(F)F)cn2)ccc1=O [BI 1935] | 106.067% and 119.906% | 111.838% and 96.8907% | 115.071% and 97.8008% | 110.735% and 98.9796% | 99.959% and 99.8673% | 61.8115% and 83.5341% |
| CN(C)C/C=C/C(=O)Nc1cc2c(Nc3ccc(F)c(Cl)c3)ncnc2cc1O[C@H]1CCOC1.O=C(O)/C=C\C(=O)O.O=C(O)/C=C\C(=O)O [AFATINIB DIMALEATE] | 4.81% and 9.6592% | 4.363% and 10.2005% | 61.0357% and 82.5087% | 65.3803% and 88.665% | 8.847% and 13.6138% | 6.151% and 10.3121% |
| COc1ccc2c(O[C@@H]3C[C@H]4C(=O)N[C@]5(C(=O)O)CC5/C=C\CCCCC[C@H](NC(=O)OC5CCCC5)C(=O)N4C3)cc(-c3csc(NC(=O)C(C)C)n3)nc2c1C (stereo not given in full) [BI 1230] | 145.195% and 153.864% | 115.735% and 122.476% | 91.3171% and 103.622% | 114.827% and 120.408% | 106.493% and 128.298% | 89.1059% and 82.6579% |
| CN(C)[C@H]1CCN(c2cc(-c3ccccc3)nc3ccnn23)C1 [(S)-ZINC-3573] | 125.32% and 118.543% | 115.524% and 96.3479% | 105.743% and 100.4% | 101.814% and 109.109% | 74.4521% and 108.791% | 105.794% and 104.481% |
| CCc1cc2cc(NS(=O)(=O)c3ccc(C#N)cc3)ccc2n(CC)c1=O | 145.787% and 148.591% | 141.244% and 141.715% | 101.899% and 123.449% | 90.9641% and 104.714% | 136.869% and 118.47% | 168.563% and 119.449% |
| C[C@@H]1CC(=O)Nc2cccc(-c3ccc4c(c3)c(-c3cnn(C)c3)nn4C)c2N1 | 59.3391% and 89.8792% | 80.6716% and 83.4041% | 80.8439% and 121.097% | 82.2884% and 110.621% | 75.8759% and 56.1051% | 135.457% and 81.8182% |
| O=C1[C@H](Cc2ccc(O)cc2)N2C(=O)CCN(C(=O)NCc3ccccc3)[C@H]2CN1Cc1cccc2ccccc12 | 96.6982% and 93.2617% | 106.282% and 104.195% | 89.9628% and 92.2926% | 85.8858% and 90.2148% | 80.9835% and 70.711% | 121.345% and 94.0767% |
| O=C(O)c1ccc(-c2coc3ncc(-c4ccccc4)cc23)cc1Cl | 151.185% and 107.979% | 124.809% and 78.3539% | 190.076% and 113.91% | 188.696% and 75.9402% | 308.758% and 113.836% | 206.023% and 93.0484% |
| Cc1ccc(-c2cnc([C@@]3(O)CC[C@H](C(=O)O)C(C)(C)C3)s2)cc1Nc1cccc(C(F)(F)F)n1 [MRL-SYKi-NC] | 90.9085% and 96.9555% | 94.2486% and 84.0983% | 112.056% and 96.0543% | 96.6815% and 86.7347% | 109.363% and 85.7712% | 161.475% and 115.078% |
| CNC(=N)NCCC[C@H](NC(=O)[C@H](CC(C)C)NC(=O)NNC(=O)[C@H](Cc1ccccc1)NC(=O)[C@H](CO)NC(=O)[C@H](CC(N)=O)NC(=O)[C@@H](Cc1cccnc1)NC(=O)[C@H](N)Cc1ccc(O)cc1)C(=O)NCC(N)=O [KISS1-543] (H-[dY][d3Pal]NSF[azaGly]L[Arg(Me)]G-NH2) | 118.716% and 117.33% | 90.7753% and 88.3624% | 119.966% and 118.758% | 94.392% and 98.4694% | 107.101% and 81.2318% | 83.0393% and 106.024% |
| CCOc1ccc(S(=O)(=O)Nc2ccc(Cl)cc2C#Cc2cnc(C(=O)[O-])cc2OC)c2ncccc12.[K+] | 90.5182% and 89.6356% | 107.269% and 105.718% | 102.626% and 139.142% | 112.375% and 81.0673% | 79.533% and 90.784% | 112.265% and 100.119% |
| C[C@@]1(Cc2ccc(C#N)cc2)C(=O)N(c2cc(Cl)cc(Cl)c2)c2ncc(C(=O)NC3(c4nc(C5CCC5)no4)CC3)n21 [BI 9446] | 120.452% and 119.438% | 141.276% and 120.817% | 115.902% and 114.683% | 106.853% and 94.898% | 73.271% and 85.2933% | 87.2778% and 108.945% |
| C[C@@H]1CCc2ncc(F)cc2[C@H]2CCCN2c2ccn3ncc(c3n2)C(=O)N1 [SELITRECTINIB] | 134.929% and 121.742% | 93.5037% and 107.969% | 119.212% and 110.383% | 103.521% and 97.8769% | 111.995% and 102.727% | 91.1731% and 73.4267% |
